For assay [1], the target named is RAC-beta serine/threonine-protein kinase (Homo sapiens) (UniProt P31751). The experiment in a line: Inhibition of recombinant full length human His-tagged AKT2 expressed in baculovirus expression system at 0.1 uM using serine/threonine-06 peptide as substrate incubated for 60 mins by Z'-LYTE assay relative to control.
The target in assay [2] is Bone morphogenetic protein receptor type-1A (Homo sapiens) (UniProt P36894). In words: Inhibition of tracer 178 binding to recombinant human GST-tagged BMPR1A catalytic domain (187 to 532 amino acids) expressed insect cell expression system at 0.1 uM measured after 60 mins by Lanthascreen assay relative to control. In general terms: In TR-FRET formats the signal depends on donor and acceptor labels being close together.

For assay [3], the target named is Serine/threonine-protein kinase Chk2 (Homo sapiens) (UniProt O96017). In words: Inhibition of recombinant full length human His-tagged CHK2 expressed in baculovirus expression system at 0.1 uM using serine/threonine-07 peptide as substrate incubated for 60 mins by Z'-LYTE assay relative to control.
The target in assay [4] is Calcium/calmodulin-dependent protein kinase type II subunit beta (Homo sapiens) (UniProt Q13554). In words: Inhibition of recombinant full length human His-tagged CAMK2beta expressed in baculovirus expression system at 0.1 uM using serine/threonine-17 peptide as substrate incubated for 60 mins by Z'-LYTE assay relative to control.
The target in assay [5] is Epidermal growth factor receptor (Homo sapiens) (UniProt P00533). In words: Inhibition of recombinant human GST-tagged EGFR (668 to 1210 residues) expressed in baculovirus expression system at 0.1 uM using tyrosine-4 peptide as substrate incubated for 60 mins by Z'-LYTE assay relative to control.
In assay [6] the test system is Epidermal growth factor receptor (Homo sapiens), P00533 [L858R,T790M]. The experiment in a line: Inhibition of recombinant human GST-tagged EGFR T790M/L858R mutant (668 to 1210: T790M/L858R residues)expressed in baculovirus expression system at 0.1 uM using tyrosine-4 peptide as substrate incubated for 60 mins by Z'-LYTE assay relative to control.
For assay [7], the target named is Ephrin type-B receptor 3 (Homo sapiens) (UniProt P54753). In words: Inhibition of recombinant human GST-tagged EPHB3 catalytic domain (623 to 907 residues) expressed in baculovirus expression system at 0.1 uM using tyrosine-2 peptide as substrate incubated for 60 mins by Z'-LYTE assay relative to control.
For assay [8], the target named is Tyrosine-protein kinase Fes/Fps (Homo sapiens) (UniProt P07332). In words: Inhibition of recombinant full length human His-tagged FES (FPS) expressed in baculovirus expression system at 0.1 uM using tyrosine-1 peptide as substrate incubated for 60 mins by Z'-LYTE assay relative to control.
The target of assay [9] is Insulin-like growth factor 1 receptor (Homo sapiens) (UniProt P08069). The experiment in a line: Inhibition of recombinant human His-tagged IGF1R catalytic domain (960 to 1397 residues) expressed in baculovirus expression system at 0.1 uM using tyrosine-1 peptide as substrate incubated for 60 mins by Z'-LYTE assay relative to control.
Assay [10] concerns the target Inhibitor of nuclear factor kappa-B kinase subunit alpha (Homo sapiens) (UniProt O15111). In words: Inhibition of recombinant full length human His-tagged IKKalpha expressed in baculovirus expression system at 0.1 uM incubated for 60 mins by Adapta assay relative to control.
Assay [11] addresses Interleukin-1 receptor-associated kinase 1 (Homo sapiens) (UniProt P51617). The experiment in a line: Inhibition of recombinant human GST-tagged IRAK1 catalytic domain (194 to 712 residues) expressed in baculovirus expression system at 0.1 uM using Histone H3 (1-20) peptide as substrate incubated for 60 mins by Adapta assay relative to control.
Assay [12] concerns the target Insulin receptor-related protein (Homo sapiens) (UniProt P14616). In words: Inhibition of recombinant human GST-tagged IRR (944 to 1297 residues) expressed in baculovirus expression system at 0.1 uM using tyrosine-4 peptide as substrate incubated for 60 mins by Z'-LYTE assay relative to control.
For assay [13], the target named is Maternal embryonic leucine zipper kinase (Homo sapiens) (UniProt Q14680). The experiment in a line: Inhibition of recombinant human GST-tagged MELK catalytic domain (1 to 340 residues) expressed in baculovirus expression system at 0.1 uM using serine/threonine-17 peptide as substrate incubated for 60 mins by Z'-LYTE assay relative to control.
Assay [14] concerns the target MAP kinase-interacting serine/threonine-protein kinase 2 (Homo sapiens) (UniProt Q9HBH9). The experiment in a line: Inhibition of tracer 236 binding to full length human GST-tagged MKNK2 expressed in baculovirus expression system at 0.1 uM measured after 60 mins by Lanthascreen assay relative to control.
The target of assay [15] is Serine/threonine-protein kinase 4 (Homo sapiens) (UniProt Q13043). In words: Inhibition of recombinant full length human GST-tagged MST1 expressed in baculovirus expression system at 0.1 uM using serine/threonine-7 peptide as substrate incubated for 60 mins by Z'-LYTE assay relative to control.
Assay [16] concerns the target Serine/threonine-protein kinase 24 (Homo sapiens) (UniProt Q9Y6E0). In words: Inhibition of recombinant full length human GST-tagged MST3 expressed in baculovirus expression system at 0.1 uM using serine/threonine-7 peptide as substrate incubated for 60 mins by Z'-LYTE assay relative to control.
For assay [17], the target named is Serine/threonine-protein kinase Nek1 (Homo sapiens) (UniProt Q96PY6). The experiment in a line: Inhibition of recombinant full length human GST-tagged NEK1 catalytic domain (1 to 505 amino acids) expressed in baculovirus expression system at 0.1 uM using serine/threonine-7 peptide as substrate incubated for 60 mins by Z'-LYTE assay relative to control.
For assay [18], the target named is Serine/threonine-protein kinase Sgk3 (Homo sapiens) (UniProt Q96BR1). The experiment in a line: Inhibition of recombinant human GST-tagged SGK3 catalytic domain (87 to 496 residues) expressed in baculovirus expression system at 0.1 uM using serine/threonine-6 peptide as substrate incubated for 60 mins by Z'-LYTE assay relative to control.
Assay [19] addresses Tyrosine-protein kinase Srms (Homo sapiens) (UniProt Q9H3Y6). The experiment in a line: Inhibition of recombinant full length human GST-tagged SRM expressed in baculovirus expression system at 0.1 uM using tyrosine-1 peptide as substrate incubated for 60 mins by Z'-LYTE assay relative to control.
The target in assay [20] is Tyrosine-protein kinase TXK (Homo sapiens) (UniProt P42681). In words: Inhibition of recombinant human GST-tagged TXK catalytic domain (260 to 527 residues) expressed in baculovirus expression system at 0.1 uM using tyrosine-6 peptide as substrate incubated for 60 mins by Z'-LYTE assay relative to control.
In assay [21] the target is High affinity nerve growth factor receptor (Homo sapiens) (UniProt P04629). In words: Inhibition of recombinant human His-tagged TRKA catalytic domain (441 to 796 residues) expressed in baculovirus expression system at 0.1 uM using tyrosine-1 peptide as substrate incubated for 60 mins by Z'-LYTE assay relative to control.
Assay [22] deals with Wee1-like protein kinase (Homo sapiens) (UniProt P30291). The experiment in a line: Inhibition of tracer 178 binding to recombinant full length human GST-tagged WEE1 expressed in baculovirus expression system at 0.1 uM measured after 60 mins by Lanthascreen assay relative to control.

The record followed here is ChEMBL document CHEMBL4385643, “Design of a brain-penetrant CDK4/6 inhibitor for glioblastoma” (Bioorg Med Chem Lett, 2019).

The inhibition is the drop in the measured response relative to a control, in per cent.

Tyrosine-protein kinase TXK (Homo sapiens), sequence (P42681 whole entry, the tested form may be a part): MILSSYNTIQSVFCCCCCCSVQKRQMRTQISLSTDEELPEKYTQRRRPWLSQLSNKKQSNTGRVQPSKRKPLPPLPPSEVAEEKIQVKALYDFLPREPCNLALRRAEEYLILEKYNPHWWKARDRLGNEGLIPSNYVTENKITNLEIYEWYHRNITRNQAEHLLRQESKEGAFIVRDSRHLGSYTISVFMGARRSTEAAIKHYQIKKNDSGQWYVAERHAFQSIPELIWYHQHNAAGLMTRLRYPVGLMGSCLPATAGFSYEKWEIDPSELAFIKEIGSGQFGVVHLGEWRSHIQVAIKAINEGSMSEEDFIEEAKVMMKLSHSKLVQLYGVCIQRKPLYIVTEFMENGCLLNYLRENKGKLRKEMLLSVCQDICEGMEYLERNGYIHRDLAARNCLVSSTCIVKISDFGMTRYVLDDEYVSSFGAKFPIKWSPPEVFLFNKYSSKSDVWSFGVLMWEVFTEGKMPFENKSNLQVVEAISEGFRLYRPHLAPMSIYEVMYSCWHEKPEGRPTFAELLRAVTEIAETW
Tyrosine-protein kinase Fes/Fps (Homo sapiens), sequence (P07332 whole entry, the tested form may be a part): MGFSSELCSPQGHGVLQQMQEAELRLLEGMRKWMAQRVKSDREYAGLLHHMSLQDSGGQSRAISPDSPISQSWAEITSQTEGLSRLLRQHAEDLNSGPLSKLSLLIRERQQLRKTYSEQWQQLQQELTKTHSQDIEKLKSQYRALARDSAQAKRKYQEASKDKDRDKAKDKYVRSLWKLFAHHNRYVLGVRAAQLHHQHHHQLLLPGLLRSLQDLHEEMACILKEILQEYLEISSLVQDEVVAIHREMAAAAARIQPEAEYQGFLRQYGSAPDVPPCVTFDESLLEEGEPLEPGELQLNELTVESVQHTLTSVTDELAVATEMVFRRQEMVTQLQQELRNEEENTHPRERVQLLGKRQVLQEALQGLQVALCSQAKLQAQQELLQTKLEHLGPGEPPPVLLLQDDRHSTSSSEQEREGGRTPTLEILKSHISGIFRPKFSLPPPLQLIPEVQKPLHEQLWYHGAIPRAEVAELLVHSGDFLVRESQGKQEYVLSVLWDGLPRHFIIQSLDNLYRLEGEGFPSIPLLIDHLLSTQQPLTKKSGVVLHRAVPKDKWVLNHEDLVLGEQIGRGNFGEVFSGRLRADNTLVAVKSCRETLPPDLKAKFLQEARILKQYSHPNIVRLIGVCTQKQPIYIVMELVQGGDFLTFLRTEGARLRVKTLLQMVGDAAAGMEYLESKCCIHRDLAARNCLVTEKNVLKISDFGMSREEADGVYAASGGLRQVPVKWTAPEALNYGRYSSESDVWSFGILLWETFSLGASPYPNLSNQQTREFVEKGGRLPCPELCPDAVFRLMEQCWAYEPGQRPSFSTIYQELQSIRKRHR
Bone morphogenetic protein receptor type-1A (Homo sapiens), sequence (P36894 whole entry, the tested form may be a part): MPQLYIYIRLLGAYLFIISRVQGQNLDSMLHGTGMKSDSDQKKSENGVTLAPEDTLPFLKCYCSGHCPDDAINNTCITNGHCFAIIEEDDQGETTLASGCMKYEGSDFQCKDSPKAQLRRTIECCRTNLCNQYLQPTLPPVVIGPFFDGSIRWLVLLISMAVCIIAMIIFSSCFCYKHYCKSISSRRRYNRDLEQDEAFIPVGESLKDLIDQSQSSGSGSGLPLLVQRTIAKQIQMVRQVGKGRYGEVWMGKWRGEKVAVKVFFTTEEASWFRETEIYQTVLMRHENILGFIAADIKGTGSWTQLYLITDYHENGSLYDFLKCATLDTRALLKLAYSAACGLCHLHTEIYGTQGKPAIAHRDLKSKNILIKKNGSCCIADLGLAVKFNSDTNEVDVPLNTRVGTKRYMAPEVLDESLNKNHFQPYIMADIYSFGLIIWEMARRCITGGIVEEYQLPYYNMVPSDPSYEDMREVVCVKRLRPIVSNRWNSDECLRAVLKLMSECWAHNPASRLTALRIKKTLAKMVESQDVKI
Wee1-like protein kinase (Homo sapiens), sequence (P30291 whole entry, looked up): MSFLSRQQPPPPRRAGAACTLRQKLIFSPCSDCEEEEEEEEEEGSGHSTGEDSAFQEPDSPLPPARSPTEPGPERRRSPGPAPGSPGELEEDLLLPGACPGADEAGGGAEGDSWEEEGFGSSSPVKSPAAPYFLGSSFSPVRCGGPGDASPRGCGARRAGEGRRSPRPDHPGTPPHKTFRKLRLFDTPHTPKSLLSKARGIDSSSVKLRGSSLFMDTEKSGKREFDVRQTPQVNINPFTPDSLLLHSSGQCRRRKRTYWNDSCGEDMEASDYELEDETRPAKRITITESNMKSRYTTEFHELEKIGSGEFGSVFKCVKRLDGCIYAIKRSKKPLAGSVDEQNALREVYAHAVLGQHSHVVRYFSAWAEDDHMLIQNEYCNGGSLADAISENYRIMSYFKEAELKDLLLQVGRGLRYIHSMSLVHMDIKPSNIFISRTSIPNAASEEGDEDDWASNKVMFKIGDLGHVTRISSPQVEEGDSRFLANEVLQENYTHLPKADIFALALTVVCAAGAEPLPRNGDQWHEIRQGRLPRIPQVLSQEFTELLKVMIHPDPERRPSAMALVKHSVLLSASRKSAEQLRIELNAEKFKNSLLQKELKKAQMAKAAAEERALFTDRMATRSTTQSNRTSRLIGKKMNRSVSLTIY
Maternal embryonic leucine zipper kinase (Homo sapiens), sequence (Q14680 whole entry, looked up, the tested form may be a part): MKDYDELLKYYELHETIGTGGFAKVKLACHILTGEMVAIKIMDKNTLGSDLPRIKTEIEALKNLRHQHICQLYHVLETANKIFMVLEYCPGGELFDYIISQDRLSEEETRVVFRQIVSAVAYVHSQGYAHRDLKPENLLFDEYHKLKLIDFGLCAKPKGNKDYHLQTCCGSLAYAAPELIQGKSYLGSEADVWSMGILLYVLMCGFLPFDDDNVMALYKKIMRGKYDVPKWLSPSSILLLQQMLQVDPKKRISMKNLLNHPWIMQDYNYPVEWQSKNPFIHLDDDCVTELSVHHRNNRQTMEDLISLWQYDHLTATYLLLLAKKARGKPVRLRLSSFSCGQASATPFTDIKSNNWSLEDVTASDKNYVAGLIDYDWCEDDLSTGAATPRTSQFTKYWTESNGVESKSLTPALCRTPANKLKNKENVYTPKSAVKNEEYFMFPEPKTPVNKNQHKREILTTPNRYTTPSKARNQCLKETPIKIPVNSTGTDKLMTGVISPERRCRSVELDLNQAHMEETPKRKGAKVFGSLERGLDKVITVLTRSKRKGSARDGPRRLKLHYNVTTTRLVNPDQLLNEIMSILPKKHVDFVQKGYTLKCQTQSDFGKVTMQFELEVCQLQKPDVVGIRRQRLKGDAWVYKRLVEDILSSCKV
MAP kinase-interacting serine/threonine-protein kinase 2 (Homo sapiens), sequence (Q9HBH9 whole entry, looked up): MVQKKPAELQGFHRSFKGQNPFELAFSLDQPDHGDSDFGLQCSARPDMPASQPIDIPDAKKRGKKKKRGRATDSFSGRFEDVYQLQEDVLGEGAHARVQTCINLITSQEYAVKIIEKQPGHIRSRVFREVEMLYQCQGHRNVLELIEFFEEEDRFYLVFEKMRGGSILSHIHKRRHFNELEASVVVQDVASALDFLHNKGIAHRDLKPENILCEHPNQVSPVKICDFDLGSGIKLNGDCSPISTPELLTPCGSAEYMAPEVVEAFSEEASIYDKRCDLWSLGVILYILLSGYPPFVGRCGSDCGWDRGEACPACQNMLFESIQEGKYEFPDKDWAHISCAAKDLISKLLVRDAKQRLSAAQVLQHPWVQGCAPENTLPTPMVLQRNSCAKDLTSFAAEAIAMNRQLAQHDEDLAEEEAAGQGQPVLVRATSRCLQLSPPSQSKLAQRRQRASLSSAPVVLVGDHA
Tyrosine-protein kinase Srms (Homo sapiens), sequence (Q9H3Y6 whole entry, the tested form may be a part): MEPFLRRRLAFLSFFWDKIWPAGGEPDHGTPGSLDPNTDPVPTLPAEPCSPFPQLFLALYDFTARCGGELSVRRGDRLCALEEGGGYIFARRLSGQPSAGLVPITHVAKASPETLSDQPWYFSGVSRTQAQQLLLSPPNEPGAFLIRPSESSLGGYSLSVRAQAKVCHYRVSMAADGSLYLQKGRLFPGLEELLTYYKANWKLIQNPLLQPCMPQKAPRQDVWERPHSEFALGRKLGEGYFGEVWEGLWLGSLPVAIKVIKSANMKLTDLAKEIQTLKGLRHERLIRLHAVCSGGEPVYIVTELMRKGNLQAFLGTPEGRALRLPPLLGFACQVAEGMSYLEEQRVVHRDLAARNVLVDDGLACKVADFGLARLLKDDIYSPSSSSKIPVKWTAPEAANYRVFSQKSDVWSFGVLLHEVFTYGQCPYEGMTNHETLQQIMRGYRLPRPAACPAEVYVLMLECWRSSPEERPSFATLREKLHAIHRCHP
Serine/threonine-protein kinase Chk2 (Homo sapiens), sequence (O96017 whole entry): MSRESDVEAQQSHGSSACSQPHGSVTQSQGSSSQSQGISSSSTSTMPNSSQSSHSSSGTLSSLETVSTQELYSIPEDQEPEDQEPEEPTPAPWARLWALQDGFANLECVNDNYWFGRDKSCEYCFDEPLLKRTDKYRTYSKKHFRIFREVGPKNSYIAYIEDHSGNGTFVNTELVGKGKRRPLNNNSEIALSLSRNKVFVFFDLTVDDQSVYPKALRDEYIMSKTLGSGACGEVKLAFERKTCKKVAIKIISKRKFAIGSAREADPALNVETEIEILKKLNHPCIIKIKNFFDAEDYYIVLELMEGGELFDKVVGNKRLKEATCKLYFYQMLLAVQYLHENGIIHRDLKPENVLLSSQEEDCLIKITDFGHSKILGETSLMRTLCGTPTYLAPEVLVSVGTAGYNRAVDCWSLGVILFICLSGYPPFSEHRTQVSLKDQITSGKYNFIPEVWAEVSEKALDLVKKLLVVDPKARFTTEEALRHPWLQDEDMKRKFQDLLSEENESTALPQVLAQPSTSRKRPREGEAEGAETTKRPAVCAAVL

As to `CCN1CC2(C1)CN(c1ccc(Nc3ncc(F)c(-c4cnn5c4[C@H](C)CCCC5)n3)nc1)C2`, the inhibition in assay [1] amounted to 9.5%; in assay [2], 0.5%; in [3], 22.5%; in assay [4], 20.5%; in assay [5], 0%; in assay [6] it was 32.5%. The inhibition in assay [7] was 1%; in assay [8], 19%; in [9], 7%; in [10], -2%; in [11] it was 48.5%; in assay [12], 1%. Moreover, the inhibition in assay [13] came to 44%; in [14], 75%; in assay [15], 8%; in [16] it was 18.5%; in assay [17] it was 0%; in [18], 7%. Moreover, the inhibition in assay [19] is 0%; in [20], -1%; in assay [21], 20%; in assay [22], 11%.

`CCN1CCN(Cc2ccc(Nc3ncc(F)c(-c4cc(F)c5nc(C)n(C(C)C)c5c4)n3)nc2)CC1` [ABEMACICLIB]: the inhibition in assay [1] is 3%; in [2], -0.3%; in assay [3], 0.5%; in assay [4] it was 88%; in assay [5], 4%; in assay [6] it was 46%. Besides, the inhibition is -0.5% in [7]; 11% in assay [8]; 14% in [9]; 53.1% in assay [10]; 99.8% in assay [11]; 6% in assay [12]. For the same compound, the inhibition in [13] was determined as 12.5%; in assay [14], 18.3%; in assay [15], 1.5%; in assay [16] it was 17%; in [17], 14%; in assay [18], 12%. The inhibition worked out at 6% in assay [19], 6.5% in [20], 31% in assay [21] and 5.5% in assay [22].
